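In this assay, cells in 96-well plates receive the compound at five concentrations for 48 hours. Endpoints are linearly interpolated between the surrounding concentrations. Abbreviation: GI50, concentration required for 50% inhibition of growth. TGI denotes the concentration required for complete inhibition of growth.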

What all share (test): NCI-60 cell line screen, 48 h
Assay [1] has as its system ACHN renal.
Assay [2] deals with COLO 205 colon.
The test system of assay [3] is EKVX NSCLC.
For assay [4], the system named is HL-60(TB) leukemia.
Assay [5] relates to KM12 colon.
Assay [6] relates to LOX IMVI melanoma.
The test system of assay [7] is NCI-H460 lung.
Assay [8] relates to OVCAR-3 ovarian.
Assay [9] has as its system OVCAR-4 ovarian.
Assay [10] relates to U251 CNS.

Take `C=C(C)C1Cc2cc(C(C)=O)ccc2O1` (centres undefined): the TGI in [1], in assay [2], in assay [3], in [4], in [5] and in [6] was over 100 µM throughout. Also, the TGI in assay [7], in [8], in assay [9] and in assay [10] was over 100 µM each time.
In the case of `Cn1c(=O)c2[nH]c(CCS)nc2n(C)c1=O`, the TGI in [1], in [2], in assay [3], in assay [4], in assay [5] and in assay [6] was over 100 µM throughout. In addition, the TGI in [7], in assay [8], in assay [9] and in [10] was over 100 µM in each case.
Regarding `CCN(CC)CCC(CNc1c(C)cnc2cc(Cl)ccc12)c1ccc(Cl)c(Cl)c1` (centres undefined), the GI50 in assay [1] was 4.51 µM; in assay [2], 1.55 µM; in assay [3] it was 3.21 µM; in [4] it was 2.13 µM; in assay [5], 4.34 µM; in [6], 1.59 µM. Moreover, the GI50 was 2.63 µM in assay [7], 6.81 µM in assay [8], 3.81 µM in assay [9] and 2.27 µM in [10]. Moreover, the TGI came to 17.5 µM in assay [1]; 3.24 µM in assay [2]; 14.2 µM in assay [3]; 5.12 µM in [4]; 17.7 µM in assay [5]; 3.14 µM in assay [6]. Also, the TGI in assay [7] was determined as 10.7 µM; in assay [8], 21.1 µM; in assay [9] it was 19.2 µM; in [10], 5.43 µM.
As to `O=c1c2cc(Br)ccc2n(C2OC(CO)C(O)C(O)C2O)c(=S)n1-c1ccccc1` (centres undefined), the TGI in assay [1], in assay [2], in assay [3], in [4], in [5] and in assay [6] was over 100 µM throughout. The TGI in assay [7], in [8], in assay [9] and in assay [10] was over 100 µM in each case.
Regarding `CCN1Cc2c(/C=C/c3ccccc3)nc3ccc(OC)cc3c2N(c2cccc(Cl)c2)C1`, the GI50 in [1] was 1.61 µM; in assay [2], 1.59 µM; in [3], 1.79 µM; in assay [4] it was 2.08 µM; in [5], 1.81 µM; in [6], 1.7 µM. Moreover, the GI50 was 1.64 µM in [7], 1.62 µM in [8], 2.8 µM in assay [9] and 1.71 µM in assay [10]. Further, the TGI is 3.08 µM in assay [1]; 3 µM in assay [2]; 3.9 µM in [3]; 5.66 µM in assay [4]; 3.49 µM in assay [5]; 3.51 µM in [6]. For the same compound, the TGI in assay [7] came out at 3.27 µM; in assay [8], 3.08 µM; in assay [9], 8.44 µM; in assay [10], 3.3 µM.
As to `C=CCC(O)c1cc(OC)ccc1OC` (centres undefined), the TGI in assay [1], in assay [2], in assay [3], in [4], in assay [5] and in assay [6] was over 100 µM throughout. The TGI in [7], in assay [8], in [9] and in assay [10] was over 100 µM throughout.
Turning to `Nc1nc(N)c2cc(S(=O)(=O)c3ccccc3)ccc2n1`, the GI50 in assay [1] is 3.27 µM; in assay [2], 6.99 µM; in assay [3], 7.13 µM; in assay [4], 1.64 µM; in assay [5], 4.23 µM; in assay [6], 0.516 µM. In addition, the GI50 in assay [7] was 0.417 µM; in assay [8], 5.68 µM; in [9] it was 7.2 µM; in [10], 1.24 µM. Also, the TGI is over 100 µM in assay [1]; over 100 µM in assay [2]; over 100 µM in assay [3]; 31.5 µM in assay [4]; over 100 µM in [5]; over 100 µM in assay [6]. Moreover, the TGI in [7], in assay [8], in assay [9] and in assay [10] was over 100 µM each time.
On to `Cn1c(=S)c2[nH]c(SCc3cccnc3)nc2n(C)c1=O`, for which the TGI in [1], in assay [2], in assay [3], in assay [4], in assay [5] and in [6] was over 100 µM in each case. The TGI in [7], in assay [8], in assay [9] and in assay [10] was over 100 µM each time.
On to `CCOc1cc(CCNC)c2c(ccc3ccc(OC)c(O)c32)c1OC`, for which the TGI was 26.5 µM in assay [1]; 42 µM in assay [2]; 36.3 µM in assay [3]; over 100 µM in [4]; 26.4 µM in [5]; 24.2 µM in assay [6]. Also, the TGI was 32.9 µM in assay [7], 29.8 µM in assay [8], 27.2 µM in [9] and 32.2 µM in assay [10].
For the compound `NC(=O)/C=C/c1c[nH]c2nccnc12`, the TGI was over 53.6 µM in [1]; 3.27 µM in assay [2]; 24.7 µM in [3]; over 38.7 µM in assay [4]; over 46.3 µM in assay [5]; 4.63 µM in [6]. Besides, the TGI in assay [7] was over 54 µM; in [8], over 39.5 µM; in [9], 65.4 µM; in assay [10], over 100 µM.
On to `COc1ccc2c3c1OC1C4(CCC5C(C2)N(CC2CC2)CCC351)OCCO4` (centres undefined), for which the TGI in [1], in [2], in [3], in assay [4], in assay [5] and in assay [6] was over 100 µM throughout. Moreover, the TGI in assay [7], in assay [8], in [9] and in [10] was over 100 µM in each case.
For `CC(C)=CC1(C)/C(=N\O)C(C)(CC(C)C)C(=O)N1O` (centres undefined), the TGI in assay [1], in assay [2], in assay [3], in assay [4], in assay [5] and in assay [6] was over 100 µM in each case. The TGI in assay [7], in assay [8], in [9] and in assay [10] was over 100 µM throughout.
Consider `COC(=O)C(Br)(C(=O)OC)C(Br)C(Br)C(Br)c1ccccc1` (centres undefined), for which the GI50 in assay [1] is 2.2 µM; in assay [2] it was 1.87 µM; in assay [3] it was 13.9 µM; in [4] it was 2.09 µM; in [5] it was 7.83 µM; in assay [6], 1.85 µM. The GI50 is 17.2 µM in assay [7], 1.72 µM in assay [8], 1.82 µM in assay [9] and 3.99 µM in assay [10]. The TGI in [1] stood at 5.15 µM; in [2] it was 3.56 µM; in assay [3], 31.9 µM; in assay [4] it was 6.03 µM; in assay [5], 21 µM; in assay [6] it was 3.66 µM. Moreover, the TGI worked out at 32.3 µM in assay [7], 3.11 µM in [8], 3.96 µM in assay [9] and 10.6 µM in [10].
`CSc1ccc(NC(=O)CCl)cc1`: the TGI in assay [1] was over 10 µM; in [2], 8.02 µM; in assay [3] it was over 10 µM; in assay [4], over 10 µM; in [5], over 10 µM; in assay [6], over 10 µM. The TGI in [7], in assay [8], in [9] and in [10] was over 10 µM throughout.
In the case of `Nc1ccccc1-n1c2c(c3ccccc3c1=O)C(=O)c1ccccc1-2`, the TGI is 18.3 µM in [1]; over 100 µM in [2]; over 100 µM in [3]; 41.6 µM in assay [4]; over 100 µM in assay [5]; over 100 µM in assay [6]. The TGI in assay [7] is over 100 µM; in assay [8], 55.1 µM; in assay [9], 82.7 µM; in assay [10] it was 60.5 µM.
For the compound `COc1ccc(-c2cncn2-c2ccc(-c3nc4cc(OC)c(OC)c(OC)c4s3)cc2)cc1N`, the GI50 in assay [1] was 5.59 µM; in assay [2], 2.94 µM; in [3], 7.54 µM; in assay [4], 2.2 µM; in assay [5], 3.8 µM; in assay [6] it was 4.75 µM. The GI50 in assay [7] was 4.69 µM; in assay [8], 5.18 µM; in [9] it was 6.29 µM; in [10], 6 µM. Besides, the TGI is over 100 µM in assay [1]; 20.6 µM in [2]; over 100 µM in assay [3]; 9.55 µM in assay [4]; over 100 µM in [5]; over 100 µM in [6]. The TGI in [7], in assay [8], in [9] and in assay [10] was over 100 µM in each case.
For the compound `COc1ncc(-c2ccc3ncnc(Nc4cccc(Cl)c4)c3c2)cc1NS(C)(=O)=O`, the GI50 in assay [1] is 0.485 µM; in assay [2], 1.75 µM; in assay [3] it was 0.579 µM; in assay [4], 0.848 µM; in assay [5], 3.55 µM; in assay [6] it was 1.68 µM. Moreover, the GI50 in assay [7] is 1.87 µM; in [8], 1.17 µM; in [9], 4.97 µM; in [10], 4.11 µM. The TGI is over 100 µM in assay [1]; 7.36 µM in assay [2]; 9.65 µM in [3]; 16.4 µM in assay [4]; 16.1 µM in [5]; 11.1 µM in [6]. For the same compound, the TGI is over 100 µM in [7], 7.7 µM in [8], 64.3 µM in [9] and 31.6 µM in assay [10].
With `COc1ccc(C(=O)c2cc(C)c(OC)c(C)c2)c(OC)c1OC(=O)C(Cl)Cl`, the GI50 in [1] was 0.0554 µM; in [2], 6.74 µM; in [3] it was 0.321 µM; in assay [4] it was 0.0251 µM; in assay [5], 0.0362 µM; in assay [6], 0.0455 µM. The GI50 in assay [7] was 0.0629 µM; in assay [8] it was 0.0353 µM; in [9], 0.422 µM; in [10], 0.0468 µM. Moreover, the TGI was over 100 µM in assay [1]; 32.4 µM in [2]; over 100 µM in assay [3]; 0.0719 µM in [4]; over 100 µM in assay [5]; over 100 µM in assay [6]. The TGI in assay [7] was 3.27 µM; in assay [9] it was over 100 µM; in assay [10] it was over 100 µM.
Turning to `Cc1cccc(/C=N/N=C(\N)NO)n1`, the TGI in [1] was over 100 µM; in assay [2], over 100 µM; in assay [3], over 100 µM; in [4], over 100 µM; in assay [5] it was over 100 µM; in [6] it was 52.8 µM. Further, the TGI in assay [7], in assay [8], in [9] and in assay [10] was over 100 µM throughout.
For `CCCCc1n(Cc2ccc3ccccc3n2)cc[n+]1Cc1ccc2ccccc2c1`, the GI50 in assay [1] is 2.89 µM; in [2] it was 0.502 µM; in assay [3] it was 1.4 µM; in [4], 0.251 µM; in assay [5] it was 0.715 µM; in assay [6], 0.736 µM. Further, the GI50 in assay [7] was 0.917 µM; in assay [8] it was 0.541 µM; in assay [9], 0.262 µM; in [10], 0.661 µM. Also, the TGI in assay [1] was determined as 8.8 µM; in assay [2], 1.79 µM; in [3] it was 11.8 µM; in assay [4] it was 0.755 µM; in [5], 2.11 µM; in assay [6], 1.95 µM. The TGI in assay [7] worked out at 2.95 µM; in [8] it was 2.03 µM; in assay [9], 1.63 µM; in [10] it was 2.06 µM.
`CC(NNC(=S)N1CCN(c2ccccn2)CC1)c1cccc[n+]1[O-]` (centres undefined): the TGI was over 100 µM in assay [1]; over 100 µM in [2]; over 100 µM in assay [3]; 16.7 µM in assay [4]; over 100 µM in assay [5]; 39.1 µM in assay [6]. In addition, the TGI in [7], in assay [8], in [9] and in assay [10] was over 100 µM each time.
